Source: BindingDB's records for patent US12338253 (Applied Pharmaceutical Science, 2025)

Target: Proto-oncogene tyrosine-protein kinase receptor Ret [V804M] (Human, UniProt P07949, V804M)
Assay: Kinase Activity Assay

Chain of Proto-oncogene tyrosine-protein kinase receptor Ret [V804M] (P07949 29-1114 V804M limits assumed): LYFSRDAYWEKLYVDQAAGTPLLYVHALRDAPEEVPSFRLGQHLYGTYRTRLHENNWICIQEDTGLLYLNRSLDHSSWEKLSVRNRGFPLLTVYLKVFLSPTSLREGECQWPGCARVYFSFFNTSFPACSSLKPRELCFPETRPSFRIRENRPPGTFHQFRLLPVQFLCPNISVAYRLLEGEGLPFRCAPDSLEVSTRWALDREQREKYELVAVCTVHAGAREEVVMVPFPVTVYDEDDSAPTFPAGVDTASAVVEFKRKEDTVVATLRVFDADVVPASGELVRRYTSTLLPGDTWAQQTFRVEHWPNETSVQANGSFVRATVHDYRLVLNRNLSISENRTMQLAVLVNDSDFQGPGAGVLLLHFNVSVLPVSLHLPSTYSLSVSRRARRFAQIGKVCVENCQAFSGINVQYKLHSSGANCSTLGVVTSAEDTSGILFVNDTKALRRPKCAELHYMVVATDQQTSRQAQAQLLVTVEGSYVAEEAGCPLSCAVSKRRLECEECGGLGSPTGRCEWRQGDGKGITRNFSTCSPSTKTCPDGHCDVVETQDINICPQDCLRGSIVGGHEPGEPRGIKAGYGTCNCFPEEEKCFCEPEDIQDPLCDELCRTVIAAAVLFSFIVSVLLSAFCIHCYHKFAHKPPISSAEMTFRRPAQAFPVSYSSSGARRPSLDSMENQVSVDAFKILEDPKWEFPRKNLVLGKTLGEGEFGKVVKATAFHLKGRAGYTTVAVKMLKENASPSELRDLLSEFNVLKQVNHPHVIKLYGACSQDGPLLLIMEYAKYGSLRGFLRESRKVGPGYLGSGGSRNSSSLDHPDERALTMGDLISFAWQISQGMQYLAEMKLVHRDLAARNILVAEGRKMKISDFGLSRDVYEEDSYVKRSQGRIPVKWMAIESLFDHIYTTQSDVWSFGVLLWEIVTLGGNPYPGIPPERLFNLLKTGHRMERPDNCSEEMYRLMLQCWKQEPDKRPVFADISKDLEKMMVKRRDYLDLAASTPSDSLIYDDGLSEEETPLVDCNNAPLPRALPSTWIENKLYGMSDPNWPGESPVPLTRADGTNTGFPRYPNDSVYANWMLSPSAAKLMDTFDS

SMILES: COc1ccc(CN2C3CC2CN(c2ccc(-c4cc(OC[C@@H]5CNCCO5)cn5nc6[nH]ncc6c45)cn2)C3)cn1 [US12338253, Compound 17]
- IC50: 0.1 nM
